Results on ten molecules are retold here after patent US20260364174A1, “Purpurin Analogs for Use in Photodynamic Therapy” (RMW Cho Group Limited, priority 2023, published 2026).

Data set [1] has as its system SKOV3 ovarian cancer cells. Nature of the data set: Inherent cytotoxicity (dark toxicity): % viable SKOV3 cells (AlamarBlue) without light. Format: cell-based, human. As to conditions: 24 h incubation, no light. The protocol: (§1) Photosensitizers (e.g. purpurin analogue, chlorin e4 disodium (provided by Advanced Molecular Technologies, Scoresby) or Talaporfin sodium (purchased from Focus Bioscience cat #HY-16477-5MG)) were resuspended in 100% dimethylsulfoxide (DMSO) at a concentration of 5.5 mM. Samples were stored at 4 °C protected from light.
(§2) For in vitro experiments, photosensitizers (stock solution 5.5 mM in 100% DMSO) were diluted 1:100 in concentrated excipient solution (final 55 μM photosensitizer in 10% w/v Kollidon-12, 42.4% w/v polysorbate 80, 40% w/v ethanol, 1.0% DMSO). Serial dilutions were prepared in cell culture media (Dulbecco's Modified Eagle Medium/Nutrient Mixture F-12 (DMEM/F-12)) supplemented with 10% v/v Fetal Bovine Serum, 100 U/mL penicillin, 100 μg/mL streptomycin and the same excipient solution at a constant 1:55 dilution.
(§3) Human ovarian cancer cell line SKOV3 (ATCC #HTB-77) was maintained in Dulbecco's Modified Eagle Medium/Nutrient Mixture F-12 (DMEM/F-12), supplemented with […] Fetal Bovine Serum, 100 U/mL penicillin and 100 μg/mL streptomycin. Monolayer cultures were grown in a humidified incubator at 37 °C with 5% CO2. Once cells had reached ~80% confluence, spent media was replaced with media containing photosensitizer at the required concentration and cells were incubated for the desired period of time to allow photosensitizer uptake.
(§4) All data were analysed using GraphPad PRISM v8.3.1 (549) (GraphPad Software, CA). Spectral absorbance and viability measurements were normalized in the range 0-100%, with a minimum of 0 and a maximum value determined from the dataset. Dose response was determined using a sigmoidal four-point non-linear regression with variable slope, and IC10 or IC90 calculated for each compound. All data are shown as mean±SD (where appropriate).
(§5) SKOV3 cells were seeded in 96-well black wall plates (Greiner #655090) at a cell density of 5000 cells in 100 μl culture medium per well. On reaching ~60% confluence, media was aspirated and replaced with fresh media containing the relevant purpurin analogue from 0-100 μM in DMSO. Cells were incubated for a further 24 hours, allowing uptake of purpurin analogues.
To test for inherent cytotoxicity (i.e. “dark toxicity”) of the purpurin analogues, the culture media was replaced after 24 hours with fresh media containing 10% (v/v) AlamarBlue Cell Viability Reagent (ThermoFisher) and cells incubated at 37 °C for 6 hours. Untreated cells were used as a control. Fluorescence (Ex 555 nm/Em 596 nm) was measured using a CLARIOstar Plus Microplate Readear (BMG Labtech), and cytotoxicity assessed according to the % viable cells remaining. All measurements were made in quadruplicate.
(§6) The phototoxicity and inherent cytotoxicity (i.e. “dark toxicity”) of purpurin analogues were assessed as previously using SKOV3 ovarian cancer cells. For comparative purposes, purpurin analogues were compared against chlorin e4 disodium and Talaporfin sodium, a clinically approved photosensitizer used in the photodynamic treatment of lung cancers. Phototoxicity IC90 values and dark toxicity IC10 values were calculated using a log[inhibitor]-vs normalized response dose curve with variable slope, using the formula Y=100/(1+(IC90/X)^HillSlope (phototoxicity IC90)) or Y=100/(1+(IC10/X)^HillSlope (dark toxicity IC10)).
For orientation: Alamar Blue is a resazurin reagent that responds to reducing activity.

For data set [2], the system named is SKOV3 ovarian cancer cells. The data set can be described thus: Phototoxicity: % viable SKOV3 cells (AlamarBlue) after incubation with photosensitizer and 680 nm LED activation. Type of data set: cell-based. The settings on record: Homo sapiens, SK-OV-3, light or radiation study, 24 h uptake, 50 mW/cm^2 for 5 mins (15 J/cm^2), viability after further 24 h. As for the experimental part: as §1, §2, §3, §4, §5
To test for phototoxicity, cells incubated with purpurin analogues ([…] in DMSO) had culture media replaced after 24 hours (as above) and were then exposed to a 680 nm light-emitting diode (LED) panel (Invion) with optical power density at 50 mW/cm^2 for 5 mins (total 15 J/cm^2). Laser and LED exposure induce an equivalent response in relation to phototoxicity. Following activation, cells were cultured for a further 24 hours. Media was then replaced with fresh media containing AlamarBlue, and % viable cells remaining assessed as above. Controls included cells treated with purpurin analogues but not activated by laser light; cells without purpurin analogue treatment but with laser light; and untreated controls. All measurements were made in quadruplicate.
as §6

Data set [3] deals with SKOV3 ovarian cancer cells. The data set can be described thus: Therapeutic index (phototoxicity IC90 vs dark toxicity IC10). Type of data set: cell-based, human. The protocol:
as §6
To evaluate the therapeutic potential of purpurin analogues, the therapeutic index (TI) was calculated. TI provides a quantitative measurement to describe relative drug safety, by comparing the drug concentration required for desirable effects versus the concentration resulting in undesirable off-target toxicity. TI was calculated using phototoxicity IC90 vs dark toxicity IC10.

Data set [4] concerns TAA- or CCl4-induced acute liver injuries. As to conditions: mice; cited from earlier work.
For data set [5], the system named is indomethacin-induced gastric lesions. The settings on record: rats; cited from earlier work.

As a reminder, the IC90 is the concentration needed for an effect of 90%.

SMILES strings stand for the structures.

As for `C=Cc1c(C)c2cc3nc(c(C)c4[nH]c(cc5nc(cc1[nH]2)C(C)=C5CC)c(C)c4C(=O)O)[C@@H](CCC(=O)O)[C@@H]3C` [Chlorin e4 disodium, chlorin e4 disodium, reference compound], the “Dark toxicity (IC10)” value in data set [1] turned out to be 40230 nM. Also, the IC90 in data set [2] came to 21300 nM. Further, the “Therapeutic Index” value in data set [3] came out at 1.89.

As for `C=Cc1c(C)c2cc3nc(c(C)c4nc(cc5[nH]c(cc1[nH]2)c(C)c5CC)C(C)=C4C(=O)O)[C@@H](CCC(=O)O)[C@@H]3C` [Chlorin e4], the “protective effect against TAA- or CCl4-induced acute liver injuries” value in data set [4] was “protective effect”. Also, the “protective effect against indomethacin-induced gastric lesions” value in data set [5] is recorded as “protective effect against indomethacin-induced gastric lesions in rats”.

With `CCCCCCN1C(=O)c2c3nc(cc4[nH]c(cc5nc(cc6[nH]c2c(c6C)C1=O)C(CC)=C5C)c(COC(=O)NCCC[P+](c1ccccc1)(c1ccccc1)c1ccccc1)c4C)[C@@H](C)[C@@H]3CCC(=O)OC` [Compound 1, purpurin 18 13-(N-(3-triphenylphosphoniumpropyl)bromide)carbamate N-hexylimide methyl ester], the “Dark toxicity (IC10)” value in data set [1] is 79630 nM. In addition, the IC90 in data set [2] worked out at 46 nM. Further, the “Therapeutic Index” value in data set [3] is 1731.09.

`CCCCCCN1C(=O)c2c3nc(cc4[nH]c(cc5nc(cc6[nH]c2c(c6C)C1=O)C(CC)=C5C)c(COC(=O)CCCC[P+](c1ccccc1)(c1ccccc1)c1ccccc1)c4C)[C@@H](C)[C@@H]3CCC(=O)OC` [Compound 2, purpurin 18 N-hexylimide 13-(oxopentyl)triphenylphosphonium bromide]: the “Dark toxicity (IC10)” value in data set [1] stood at 77630 nM. Also, the IC90 in data set [2] came to 27 nM. In data set [3], the “Therapeutic Index” value was found to be 2875.19.

Take `CCC1=C(C)c2cc3[nH]c(cc4nc(c5c6[nH]c(cc1n2)c(C)c6C(=O)N(CCOCCOC)C5=O)[C@@H](CCC(=O)OC)[C@@H]4C)c(C)c3COC(=O)NCCC[P+](c1ccccc1)(c1ccccc1)c1ccccc1` [Compound 3, purpurin 18 13-(N-(3-triphenylphosphoniumpropyl)bromide)carbamate N-(2-(2-methoxyethoxy)ethyl)imide methyl ester]: the “Dark toxicity (IC10)” value in data set [1] was 50840 nM. The IC90 in data set [2] is 102 nM. Besides, the “Therapeutic Index” value in data set [3] worked out at 498.43.

On to `C=Cc1c(C)c2cc3nc(c4c5[nH]c(cc6nc(cc1[nH]2)C(C)=C6CC)c(C)c5C(=O)N(CCC[P+](c1ccccc1)(c1ccccc1)c1ccccc1)C4=O)[C@@H](CCC(=O)N(C)CCOCCOC)[C@@H]3C` [Compound 4, purpurin 18 N-(3-triphenylphosphoniumpropylbromide)imide N-(2-(2-methoxyethoxy)ethyl)-N-methyl-amide], for which the “Dark toxicity (IC10)” value in data set [1] came to 49910 nM. In addition, in data set [2], the IC90 was determined as 10 nM. Besides, in data set [3], the “Therapeutic Index” value is on record as 4991.00.

In the case of `C=Cc1c(C)c2cc3nc(c4c5[nH]c(cc6nc(cc1[nH]2)C(C)=C6CC)c(C)c5C(=O)OC4=O)[C@@H](CCC(=O)NCCC[P+](c1ccccc1)(c1ccccc1)c1ccccc1)[C@@H]3C` [Compound 5, purpurin 18 (N-(3-triphenylphosphoniumpropyl)bromide)amide], in data set [1], the “Dark toxicity (IC10)” value stood at 49880 nM. Besides, in data set [2], the IC90 worked out at 5 nM. The “Therapeutic Index” value in data set [3] worked out at 9976.00.

Turning to `C=Cc1c(C)c2cc3nc(c4c5[nH]c(cc6nc(cc1[nH]2)C(C)=C6CC)c(C)c5C(=O)N(CCOCCOC)C4=O)[C@@H](CCC(=O)NCCC[P+](c1ccccc1)(c1ccccc1)c1ccccc1)[C@@H]3C` [Compound 6, purpurin 18 (N-(3-triphenylphosphoniumpropyl)bromide)amide N-(2-(2-methoxyethoxy)ethyl)imide], in data set [1], the “Dark toxicity (IC10)” value amounted to 51070 nM. In addition, in data set [2], the IC90 was determined as 9 nM. Further, in data set [3], the “Therapeutic Index” value came out at 5674.44.

In the case of `CCCCCCN1C(=O)c2c3nc(cc4[nH]c(cc5nc(cc6[nH]c2c(c6C)C1=O)C(CC)=C5C)c(CN(C)C(=O)CCCC[P+](c1ccccc1)(c1ccccc1)c1ccccc1)c4C)[C@@H](C)[C@@H]3CCC(=O)OC` [Compound 7, purpurin 18 N-hexylimide 13-(N-methyl-5-triphenylphosphonium bromidepentanamide) methyl ester], the “Dark toxicity (IC10)” value in data set [1] was 49400 nM. Moreover, the IC90 in data set [2] is 21 nM. In addition, in data set [3], the “Therapeutic Index” value is listed as 2352.38.

Turning to `C=Cc1c(C)c2cc3nc(c(CC(=O)N[C@@H](CC(=O)O)C(=O)O)c4[nH]c(cc5nc(cc1[nH]2)C(C)=C5CC)c(C)c4C(=O)O)[C@@H](CCC(=O)O)[C@@H]3C` [Talaporfin sodium, reference compound], the “Dark toxicity (IC10)” value in data set [1] was 11100 nM. Besides, the “Therapeutic Index” value in data set [3] is on record as 0.49.
